Laboratory results from ChEMBL document CHEMBL3880390, “Agents for preventing and treating disorders involving modulation of the RYR receptors” (2014).
Blank lines part the entries; values can stand above or below the compound they belong to. Active and inactive are the calls of the source. The calls are words filed in the database; no cut-off is given here.

Columns and labels:
[1] = Cardiotoxicity in FKBP12.6 deficient mouse implanted with osmotic mini-pump assessed as reduction in resting heart rate in at 0.5 mg/kg/hr for 7 hrs; assay type: toxicity, organism-based; conditions: in vivo
[2] = Cardiotoxicity in haploinsufficient FKBP12.6 expressing mouse implanted with osmotic mini-pump assessed as reduction in resting heart rate in at 0.5 mg/kg/hr for 7 hrs; assay type: toxicity, organism-based; conditions: in vivo
Mus musculus [3] = experiment: Antiarrhythmic activity in haploinsufficient FKBP12.6 expressing mouse assessed as plasma concentration showing prevention of sudden cardiac death dosed via osmotic mini-pump under testing exercise followed by epinephrine injection relative to control; assay type: functional, organism-based
Mus musculus [4] = experiment: Antiarrhythmic activity in haploinsufficient FKBP12.6 expressing mouse assessed as plasma concentration showing prevention of cardiac arrhythmias dosed via osmotic mini-pump under testing exercise followed by epinephrine injection relative to control; assay type: functional, organism-based
Mus musculus [5] = experiment: Reduction in PKA-phosphorylation of RyR2 in myocardial infarction-induced heart failure mouse model at 0.5 mg/kg/hr after 28 days post myocardial infarction; assay type: functional, organism-based
Mus musculus [6] = species: Mus musculus; experiment: Reduction in RyR2 channel opening probability in haploinsufficient FKBP12.6+/- mouse in the presence of […]; assay type: functional
[7] = molecular target: Ryanodine receptor 1 (Mus musculus) (UniProt E9PZQ0); experiment: Induction of normalization of RYR1 function in mdx dystrophin deficient mouse soleus muscle assessed as increase in channel open probability at 1 uM; assay type: tissue-based
[8] = molecular target: Ryanodine receptor 1 (Mus musculus) (UniProt E9PZQ0); experiment: Induction of normalization of RYR1 function in mdx dystrophin deficient mouse soleus muscle assessed as increase in average channel open dwell time at 1 uM; assay type: tissue-based
[9] = molecular target: Ryanodine receptor 1 (Mus musculus) (UniProt E9PZQ0); experiment: Induction of normalization of RYR1 function in mdx dystrophin deficient mouse soleus muscle assessed as decrease in average channel close dwell time at 1 uM; assay type: tissue-based
Mus musculus [10] = experiment: Improvement in soleus muscle fatigability in myocardial infarction-induced heart failure mouse model at 0.5 mg/kg/day relative to control; assay type: functional, organism-based
Mus musculus [11] = experiment: Improvement in soleus muscle fatigability in myocardial infarction-induced heart failure calstabin2-deficient knockout mouse at 0.5 mg/kg/day relative to control; assay type: functional, organism-based
Mus musculus [12] = species: Mus musculus; experiment: Antiarrhythmic activity in haploinsufficient FKBP12.6 expressing mouse assessed as reduction in sustained ventricular tachycardia at 1 uM under testing exercise followed by epinephrine injection relative to control; assay type: functional
[13] = molecular target: Ryanodine receptor 1 (Mus musculus) (UniProt E9PZQ0); experiment: Normalization of RYR1 in myocardial infarction-induced heart failure mouse soleus muscle assessed as increase in average channel open dwell time; assay type: tissue-based
[14] = molecular target: Ryanodine receptor 1 (Mus musculus) (UniProt E9PZQ0); experiment: Normalization of RYR1 in myocardial infarction-induced heart failure mouse soleus muscle assessed as decrease in average channel close dwell time; assay type: tissue-based
[15] = molecular target: Ryanodine receptor 1 (Mus musculus) (UniProt E9PZQ0); experiment: Induction of calstabin-1 binding to RyR1 in mouse skeletal muscle at >50 nM
[16] = Cardiotoxicity in haploinsufficient FKBP12.6 expressing mouse assessed as reduction in non-sustained ventricular tachycardia at 1 uM under testing exercise followed by epinephrine injection relative to control; assay type: toxicity; conditions: in vivo
[17] = molecular target: Ryanodine receptor 1 (Mus musculus) (UniProt E9PZQ0); experiment: Induction of calstabin-1 binding to RYR1 in myocardial infarction-induced heart failure wild type mouse soleus muscle at 0.5 mg/kg/day dosed via implantable osmotic minipumps; assay type: organism-based
[18] = molecular target: Ryanodine receptor 1 (Mus musculus) (UniProt E9PZQ0); experiment: Inhibition of PKA-induced RyR1 phosphorylation in myocardial infarction-induced heart failure mouse soleus muscle at 0.5 mg/kg/day dosed via implantable osmotic minipumps; assay type: organism-based
[19] = molecular target: Ryanodine receptor 1 (Mus musculus) (UniProt E9PZQ0); experiment: Induction of calstabin-1 binding to RYR1 in myocardial infarction-induced heart failure calsiabin2-/- mouse soleus muscle at 0.5 mg/kg/day dosed via implantable osmotic minipumps; assay type: organism-based
[20] = molecular target: Ryanodine receptor 1 (Mus musculus) (UniProt E9PZQ0); experiment: Induction of calstabin-2 binding to RyR1 in mouse skeletal muscle at >50 nM
[21] = molecular target: Ryanodine receptor 1 (Mus musculus) (UniProt E9PZQ0); experiment: Induction of calstabin-1 binding to PKA-phosphorylated RyR1 in mouse skeletal muscle at >50 nM
[22] = molecular target: Ryanodine receptor 1 (Mus musculus) (UniProt E9PZQ0); experiment: Induction of calstabin-2 binding to PKA-phosphorylated RyR1 in mouse skeletal muscle at >50 nM
Ryanodine receptor 2 = Ryanodine receptor 2 (Homo sapiens, UniProt Q92736); experiment: Induction of FKBP12.6 re-binding to PKA-phosphorylated-RyR2 (unknown origin) after 30 mins in presence of [35S]-FKBP12.6 by liquid scintillation counting
hERG (KCNH2) [23] = molecular target: T1, hERG (KCNH2) (Homo sapiens, UniProt Q12809); experiment: Inhibition of human ERG expressed in HEK293 cells at 0.01 uM after 5 mins at -80 mV holding potential by patch clamp assay; assay type: cell-based; conditions: HEK293 cells expressing human ERG
hERG (KCNH2) [24] = molecular target: T1, hERG (KCNH2); experiment: Inhibition of human ERG expressed in HEK293 cells at 0.1 uM after 5 mins at -80 mV holding potential by patch clamp assay; assay type: cell-based; conditions: HEK293 cells expressing human ERG
hERG (KCNH2) [25] = molecular target: T1, hERG (KCNH2); experiment: Inhibition of human ERG expressed in HEK293 cells at 1 uM after 5 mins at -80 mV holding potential by patch clamp assay; assay type: cell-based; conditions: HEK293 cells expressing human ERG
hERG (KCNH2) [26] = molecular target: T1, hERG (KCNH2); experiment: Inhibition of human ERG expressed in HEK293 cells at 10 uM after 5 mins at -80 mV holding potential by patch clamp assay; assay type: cell-based; conditions: HEK293 cells expressing human ERG
L-type calcium channel = L-type calcium channel (Mus musculus, UniProt Q01815+Q02789+Q99246+Q9JIS7); experiment: Inhibition of L-type Ca2+ channel in mouse cardiomyocytes at holding potential of -80 or -40 mV by whole cell patch clamp assay; assay type: cell-based

T1 sequence (Q12809 whole entry): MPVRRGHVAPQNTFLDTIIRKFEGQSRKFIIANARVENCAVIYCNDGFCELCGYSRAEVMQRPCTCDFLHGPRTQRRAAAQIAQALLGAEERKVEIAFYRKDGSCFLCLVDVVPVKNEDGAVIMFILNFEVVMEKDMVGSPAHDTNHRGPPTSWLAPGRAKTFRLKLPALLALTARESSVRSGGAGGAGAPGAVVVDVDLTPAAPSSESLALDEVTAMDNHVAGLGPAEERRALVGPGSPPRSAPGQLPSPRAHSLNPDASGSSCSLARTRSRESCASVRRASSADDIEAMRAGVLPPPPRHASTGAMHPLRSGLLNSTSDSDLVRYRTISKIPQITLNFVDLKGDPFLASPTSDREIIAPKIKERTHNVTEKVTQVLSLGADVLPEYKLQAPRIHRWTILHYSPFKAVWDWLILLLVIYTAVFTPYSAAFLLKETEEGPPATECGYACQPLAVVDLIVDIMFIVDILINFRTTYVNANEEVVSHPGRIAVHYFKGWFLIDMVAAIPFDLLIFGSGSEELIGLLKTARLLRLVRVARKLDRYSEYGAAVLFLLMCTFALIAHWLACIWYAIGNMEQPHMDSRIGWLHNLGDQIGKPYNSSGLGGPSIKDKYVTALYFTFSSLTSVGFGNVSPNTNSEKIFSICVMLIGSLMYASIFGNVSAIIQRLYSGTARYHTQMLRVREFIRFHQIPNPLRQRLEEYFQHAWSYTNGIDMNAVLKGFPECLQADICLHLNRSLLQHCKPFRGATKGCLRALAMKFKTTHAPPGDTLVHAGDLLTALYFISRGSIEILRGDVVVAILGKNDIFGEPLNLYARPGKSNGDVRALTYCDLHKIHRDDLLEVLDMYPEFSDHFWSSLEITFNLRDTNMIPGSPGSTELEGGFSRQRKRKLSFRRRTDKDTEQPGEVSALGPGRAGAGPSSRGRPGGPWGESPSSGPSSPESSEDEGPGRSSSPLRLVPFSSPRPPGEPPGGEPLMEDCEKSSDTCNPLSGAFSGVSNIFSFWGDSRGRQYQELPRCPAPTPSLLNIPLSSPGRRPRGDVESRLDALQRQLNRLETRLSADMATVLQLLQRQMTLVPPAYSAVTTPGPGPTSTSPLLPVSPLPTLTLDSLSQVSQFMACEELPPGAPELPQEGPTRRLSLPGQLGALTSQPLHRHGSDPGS

Activity [7]: Active
TIME [8]: 4.44e-07 h
TIME [9]: 0.000287 h
TIME [13]: 4.17e-07 to 5e-07 h
TIME [14]: 0.000435 to 0.000441 h
Activity [15]: Active
Activity [17]: Active
inhibition [18]: Active
Activity [19]: Active
Activity [20]: Active
Activity [21]: Active
Activity [22]: Active
Compound: COc1ccc2c(c1)CN(C(=O)CCN1CCC(Cc3ccccc3)CC1)CCS2.Cl
Activity [1]: Non-Toxic
Activity [2]: Non-Toxic
Cp (Mus musculus [3]): 1 µM
Cp (Mus musculus [4]): 1 µM
Activity (Mus musculus [5]): Active
Activity (Mus musculus [6]): Active
Activity (Mus musculus [10]): Active
Activity (Mus musculus [11]): Active
Activity (Mus musculus [12]): Active
Activity [16]: Non-Toxic

Compound: COc1ccc2c(c1)CN([P@@](=O)(OC)c1ccccc1)CCS2
EC50 (Ryanodine receptor 2): 174 nM

Compound: COc1ccc2c(c1)CN(C(=O)C(=O)O)CCS2(=O)=O
inhibition at 5 min, 0.01 µM (hERG (KCNH2) [23]): 1.6%
inhibition at 5 min, 0.1 µM (hERG (KCNH2) [24]): 2.5%
inhibition at 5 min, 1 µM (hERG (KCNH2) [25]): 4.6%
inhibition at 5 min, 10 µM (hERG (KCNH2) [26]): 7.4%

Compound: COC(=O)C1=C(C)NC(C)=C(C(=O)OC)C1c1ccccc1[N+](=O)[O-] [NIFEDIPINE]
inhibition (INH) (L-type calcium channel): Active

Compound: COc1ccc2c(c1)CN(C)CCS2
inhibition at 5 min, 0.01 µM (hERG (KCNH2) [23]): 2.9%
inhibition at 5 min, 0.1 µM (hERG (KCNH2) [24]): 4%
inhibition at 5 min, 1 µM (hERG (KCNH2) [25]): 6.2%
inhibition at 5 min, 10 µM (hERG (KCNH2) [26]): 32.1%

Compound: COc1ccc2c(c1)CN(C(=O)N1CCCCC1)CCS2
inhibition at 5 min, 0.01 µM (hERG (KCNH2) [23]): 1.8%
inhibition at 5 min, 0.1 µM (hERG (KCNH2) [24]): 3.7%
inhibition at 5 min, 1 µM (hERG (KCNH2) [25]): 6.1%
inhibition at 5 min, 10 µM (hERG (KCNH2) [26]): 24.2%

EC50 (Ryanodine receptor 2): 77 nM
Compound: COc1ccc2c(c1)CN(S(=O)(=O)Nc1cccnc1)CCS2

Compound: O=C(NO)N1CCSc2ccccc2C1
inhibition at 5 min, 0.01 µM (hERG (KCNH2) [23]): 1.9%
inhibition at 5 min, 0.1 µM (hERG (KCNH2) [24]): 4.8%
inhibition at 5 min, 1 µM (hERG (KCNH2) [25]): 1.3%
inhibition at 5 min, 10 µM (hERG (KCNH2) [26]): 9.5%

Compound: O=C(O)C(=O)N1CCSc2ccccc2C1
inhibition at 5 min, 0.01 µM (hERG (KCNH2) [23]): 1.3%
inhibition at 5 min, 0.1 µM (hERG (KCNH2) [24]): 7.5%
inhibition at 5 min, 1 µM (hERG (KCNH2) [25]): 3.6%
inhibition at 5 min, 10 µM (hERG (KCNH2) [26]): 4.1%
